Legend:
[1] = molecular target: Influenza A endonuclease (pandemic H1N1 endonuclease, residues 1–204) (Influenza A virus, UniProt C3W5S0); format: biochemical
[2] = tested on: influenza A endonuclease; conditions: earlier studies with phenyl substituted 3-hydroxypyridin-2(1H)-ones; cited from earlier work

Structure (SMILES): O=c1[nH]c(-c2ccc(-c3nnn[nH]3)cc2)ncc1O [compound 11, 2-(4-(1H-Tetrazol-5-yl)phenyl)-5-hydroxypyrimidin-4(3H)-one]
- potency relative to the 3-(tetrazoly)phenyl derivative 12 [1]: 3 fold

Structure (SMILES): O=c1[nH]cnc(-c2ccc(F)cc2)c1O [compound 2, 6-(4-Fluorophenyl)-5-hydroxypyrimidin-4(3H)-one]
- activity as an endonuclease inhibitor (in words) [1]: lack of activity

Structure (SMILES): N#Cc1cccc(-c2ncc(O)c(=O)[nH]2)c1 [compound 10, 3-(5-Hydroxy-6-oxo-1,6-dihydropyrimidin-2-yl)benzonitrile]
- potency compared to the 4-cyanophenyl isomer 9 [1]: approximately twice as potent

Structure (SMILES): O=c1[nH]ccc(-c2ccc(F)cc2)c1O [4-(4-fluorophenyl)-3-hydroxypyridin-2(1H)one]
- activity as endonuclease inhibitor (in words) [2]: did not exhibit significant activity

Structure (SMILES): O=c1[nH]cc(-c2ccc(F)cc2)[nH]c1=O [compound 1, 5-(4-Fluorophenyl)pyrazine-2,3(1H,4H)-dione]
- activity as an endonuclease inhibitor (in words) [1]: comparatively weak activity
- less potent than either 5- or 6-(4-fluorophenyl)-3-hydroxypyridin-2(1H)-one [1]: more than 80 times

Structure (SMILES): O=c1[nH]ncc(-c2ccc(F)cc2)c1O [compound 13, 5-(4-Fluorophenyl)-4-hydroxypyridazin-3(2H)-one]
- activity as an endonuclease inhibitor (in words) [1]: did not exhibit significant activity
